Measured values from patent US20240245696A1, “INHIBITORS OF DNA PK AND USES THEREOF” (BioVentures, LLC, priority 2017, published 2024).

Tests used:
IL-2 = assay: qPCR of IL-2 expression in stimulated Jurkat cells; assay type: cell-based, human; conditions: PHA+PMA stimulation
Procedure: (§1) Evaluation of PD-1 and IL-2 expression: The effect of NU7441 on the expression of PD-1, a protein with immunosuppressant function, and IL-2 was examined in Jurkat cells following stimulation with PHA+PMA and treatment with the inhibitor NU7441. qPCR analysis was performed using primers specific for PD1 and IL-2 sequences.

PD-1 = assay: qPCR of PD-1 expression in stimulated Jurkat cells; assay type: cell-based, human; conditions: PHA+PMA stimulation
Procedure: as §1

C=CC[C@@H]1/C=C(\C)C[C@H](C)C[C@H](OC)[C@H]2O[C@@](O)(C(=O)C(=O)N3CCCC[C@H]3C(=O)O[C@H](/C(C)=C/[C@@H]3CC[C@@H](O)[C@H](OC)C3)[C@H](C)[C@@H](O)CC1=O)[C@H](C)C[C@@H]2OC [FK506, Tacrolimus]
IL-2 expression (IL-2): reduced | expression level of PD-1 (PD-1): significantly reduce expression
